In article PMC9501899 (Journal of the American Chemical Society, 2022):

Experiments:
G2019S LRRK2 = target: T1, G2019S LRRK2 (Mus musculus, UniProt Q5S006, G2019S); assay: LRRK2 degradation in G2019S LRRK2 MEFs by Western blotting; type: cell-based
T1 construct: endogenous in cells; host or cells: G2019S LRRK2 MEFs
Method: (§1) These PROTACs were then biologically evaluated in mouse embryonic fibroblasts (MEFs) by Western blotting. Briefly, MEFs were treated with compounds at 33 nM and 1 μM for 4 h (Figure 2) and 24 h (Figure S2) separately, and the intracellular level of LRRK2, phosphorylated LRRK2 at Ser935, and phosphorylated Rab10 (pRab10) at Thr73 was determined. Rab10[5],[49] is one of the bona fide substrates of LRRK2, whose phosphorylation status is directly affected by the LRRK2 kinase activity and protein level. Phosphorylation of LRRK2 at Ser935 is a well-studied biomarker site used to assess the efficacy of type 1 LRRK2 inhibitors.[30]
(§2) Primary MEFs were generated as described in a previous study.[80] Briefly, the uterine horn was collected from adult female mice at day E12.5 and transferred to a 10 cm tissue culture dish containing cold PBS. Two forceps were used to tear the yolk sacs to isolate each embryo. Forceps were cleaned thoroughly with 70% ethanol between each embryo isolation. The embryos were culled, and a tissue piece was collected in a polymerase chain reaction (PCR) tube for genotyping. The red tissue of the embryo was removed, and the remainder was minced with a scalpel blade and incubated with a 7.5 mL trypsin–ethylenediaminetetraacetic acid (EDTA) solution for 10 min in a 37 °C, 5% CO2 tissue culture incubator. The dish was removed from the incubator and checked under a light microscope for single cells. Complete media (7.5 mL) was added to the trypsinized cells, and the cell suspension was transferred to a 15 mL Falcon tube and centrifuged at 1200 rpm for 5 min at room temperature. The trypsin was aspirated, the cell pellet was resuspended in a 5 mL fresh complete media, and the cell suspension was plated in a 60 mm tissue culture dish and incubated in a 37 °C, 5% CO2 tissue culture incubator. The MEFs at this stage were considered as passage 0 and were passaged and expanded for experimental use once the genotype was confirmed by allelic sequencing and immunoblotting. MEFs were cultured in Dulbecco’s modified Eagle’s medium (DMEM) containing 10% (v/v) fetal bovine serum (FBS), 2 mM L-glutamine, 100 U/mL penicillin, and 100 μg/mL streptomycin supplemented with 1× nonessential amino acids and 1 mM sodium pyruvate.
(§3) Culturing and passaging of adherent cell lines were carried out using an aseptic technique in CL1 or CL2 (for PBMC isolation) biological safety cabinets. All cells were incubated in a 37 °C incubator with 5% CO2. Cell lines were regularly tested for mycoplasma contamination. For Western blot assay, the cells were seeded in six-well plates. For immunoprecipitation of LRRK2, SH-SY5Y cells (cultured in DMEM-F12, supplemented with 15% (v/v) FBS, 100 U/mL penicillin and 100 μg/mL streptomycin, 1× nonessential amino acids, and 1 mM sodium pyruvate) were seeded in a 10 cm dish. All cells were treated with the indicated compounds such that the final concentration of DMSO was 0.1%. Following the treatment of cells with compounds at indicated concentrations and time periods, the media was removed and the cells were washed with PBS and lysed in a 100 μL ice-cold complete lysis buffer containing 50 mM tris–HCl pH 7.4, 1 mM EGTA, 10 mM 2-glycerophosphate, 50 mM sodium fluoride, 5 mM sodium pyrophosphate, 270 mM sucrose, supplemented with 1 μg/mL microcystin-LR, 1 mM sodium orthovanadate, complete EDTA-free protease inhibitor cocktail (Roche), and 1% (v/v) Triton X-100. The cells were immediately placed on ice and were scraped and collected into 1.5 mL Eppendorf tubes. Cell lysates were incubated on ice for 10 min prior to centrifugation at 15 000g at 4 °C for 15 min.

WT LRRK2 = target: T2, WT LRRK2 (Mus musculus, UniProt Q5S006); assay: LRRK2 degradation in WT MEFs by Western blotting; type: cell-based; settings: 4 h
T2 construct: endogenous in cells; host or cells: wild-type primary MEFs
Method: as §1, §2, §3

Rab10-pThr73 [1] = assay: Rab10 dephosphorylation in G2019S LRRK2 MEFs by Western blotting; type: cell-based, mouse
Method: as §1, §2, §3

Rab10-pThr73 [2] = assay: Rab10 dephosphorylation in WT MEFs by Western blotting; type: cell-based, mouse; settings: Mus musculus; 4 h, WT MEFs; read-out: EC50 WT-pRab10
Method: as §1, §2, §3

LRRK2 = assay: Western blot screening of PROTACs in WT and G2019S LRRK2 MEFs; type: cell-based, mouse
Method: as §1, §2
Culturing and passaging of adherent cell lines were carried out using an aseptic technique in CL1 or CL2 (for PBMC isolation) biological safety cabinets. All cells were incubated in a 37 °C incubator with 5% CO2. Cell lines were regularly tested for mycoplasma contamination. For Western blot assay, the cells were seeded in six-well plates.

T1 sequence (Q5S006 whole entry G2019S): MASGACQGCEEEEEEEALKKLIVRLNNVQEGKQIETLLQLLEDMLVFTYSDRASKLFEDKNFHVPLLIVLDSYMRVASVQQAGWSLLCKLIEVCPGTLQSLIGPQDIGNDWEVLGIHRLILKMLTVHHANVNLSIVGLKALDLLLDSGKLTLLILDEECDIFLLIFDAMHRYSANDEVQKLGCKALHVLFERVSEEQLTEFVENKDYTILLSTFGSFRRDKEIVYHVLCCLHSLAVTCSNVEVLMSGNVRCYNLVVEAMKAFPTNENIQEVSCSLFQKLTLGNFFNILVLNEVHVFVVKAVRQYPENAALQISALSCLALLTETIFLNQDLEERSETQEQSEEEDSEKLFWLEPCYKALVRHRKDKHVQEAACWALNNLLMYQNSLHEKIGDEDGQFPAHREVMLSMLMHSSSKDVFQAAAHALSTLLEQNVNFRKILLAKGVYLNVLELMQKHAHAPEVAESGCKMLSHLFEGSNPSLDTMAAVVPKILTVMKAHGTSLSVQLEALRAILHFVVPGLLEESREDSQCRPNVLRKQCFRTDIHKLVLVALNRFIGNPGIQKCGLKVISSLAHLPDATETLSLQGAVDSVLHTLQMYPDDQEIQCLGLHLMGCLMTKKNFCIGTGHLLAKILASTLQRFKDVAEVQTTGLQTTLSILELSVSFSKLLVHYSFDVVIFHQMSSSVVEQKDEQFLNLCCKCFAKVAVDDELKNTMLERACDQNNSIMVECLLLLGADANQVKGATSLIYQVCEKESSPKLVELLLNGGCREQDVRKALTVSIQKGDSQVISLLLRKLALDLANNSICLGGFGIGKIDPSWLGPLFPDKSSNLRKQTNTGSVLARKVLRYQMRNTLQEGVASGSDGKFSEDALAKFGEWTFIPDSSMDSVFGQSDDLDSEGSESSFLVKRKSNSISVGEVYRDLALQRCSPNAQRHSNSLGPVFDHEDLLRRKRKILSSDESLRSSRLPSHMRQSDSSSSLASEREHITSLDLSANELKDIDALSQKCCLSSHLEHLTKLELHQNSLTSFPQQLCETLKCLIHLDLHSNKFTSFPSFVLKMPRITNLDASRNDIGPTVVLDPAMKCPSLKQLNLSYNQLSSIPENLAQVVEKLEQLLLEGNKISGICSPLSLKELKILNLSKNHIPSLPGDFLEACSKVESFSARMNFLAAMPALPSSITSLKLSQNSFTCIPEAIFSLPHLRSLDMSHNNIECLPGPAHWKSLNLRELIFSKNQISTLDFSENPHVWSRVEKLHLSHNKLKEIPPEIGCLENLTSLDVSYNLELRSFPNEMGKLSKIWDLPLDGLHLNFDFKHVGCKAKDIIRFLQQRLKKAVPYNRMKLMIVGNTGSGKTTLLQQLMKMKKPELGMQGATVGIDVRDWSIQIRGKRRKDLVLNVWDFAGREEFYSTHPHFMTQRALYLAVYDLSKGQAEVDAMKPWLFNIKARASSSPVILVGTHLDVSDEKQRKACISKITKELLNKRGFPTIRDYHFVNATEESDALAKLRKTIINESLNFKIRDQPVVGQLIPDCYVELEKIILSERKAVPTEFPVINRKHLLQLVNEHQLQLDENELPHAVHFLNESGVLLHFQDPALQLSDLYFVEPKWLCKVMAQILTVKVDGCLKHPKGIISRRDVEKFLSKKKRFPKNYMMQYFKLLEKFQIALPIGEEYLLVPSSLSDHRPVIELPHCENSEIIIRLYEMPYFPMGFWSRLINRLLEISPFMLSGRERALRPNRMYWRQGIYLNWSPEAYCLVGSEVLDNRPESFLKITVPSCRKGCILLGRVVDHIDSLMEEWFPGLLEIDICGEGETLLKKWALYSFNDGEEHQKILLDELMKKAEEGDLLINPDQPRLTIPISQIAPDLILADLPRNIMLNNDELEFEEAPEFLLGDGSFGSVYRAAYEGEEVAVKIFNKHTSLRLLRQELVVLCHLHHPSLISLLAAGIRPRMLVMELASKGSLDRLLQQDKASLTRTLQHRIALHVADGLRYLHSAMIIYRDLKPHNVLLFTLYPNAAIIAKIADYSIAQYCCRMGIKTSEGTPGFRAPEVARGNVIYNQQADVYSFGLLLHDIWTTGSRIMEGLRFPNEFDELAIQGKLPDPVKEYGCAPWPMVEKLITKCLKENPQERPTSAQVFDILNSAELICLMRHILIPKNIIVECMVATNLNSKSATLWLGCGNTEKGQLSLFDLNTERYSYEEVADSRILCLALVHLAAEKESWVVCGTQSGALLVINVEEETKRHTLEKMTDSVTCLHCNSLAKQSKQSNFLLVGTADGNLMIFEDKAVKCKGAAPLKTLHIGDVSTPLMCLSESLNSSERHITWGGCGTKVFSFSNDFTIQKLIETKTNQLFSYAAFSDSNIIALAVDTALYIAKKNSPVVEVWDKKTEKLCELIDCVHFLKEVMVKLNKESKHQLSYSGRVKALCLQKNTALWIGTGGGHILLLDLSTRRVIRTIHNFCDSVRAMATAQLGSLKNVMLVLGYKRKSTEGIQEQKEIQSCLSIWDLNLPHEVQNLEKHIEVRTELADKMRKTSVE
T2 sequence (Q5S006 whole entry): as the sequence (Q5S006 whole entry G2019S) above, with S2019G counted along it

Structure (SMILES): CNc1nc(Nc2ccc(C(=O)N3CCOCC3)cc2OC)ncc1Cl [HG-10-102-01, reference compound]
- degradation of G2019S LRRK2 (in words) (G2019S LRRK2; 4 h): did not degrade LRRK2
- degradation of WT LRRK2 (in words) (WT LRRK2): did not degrade LRRK2
- EC50 (Rab10-pThr73 [1]; Mus musculus, 4 h, G2019S LRRK2 MEFs, read-out: EC50 G2019S pRab10): 0.11 µM
- EC50 (Rab10-pThr73 [2]): 0.214 µM

Structure (SMILES): CNc1nc(Nc2ccc(C(=O)N3CCN(CCCOc4cc(-c5scnc5C)ccc4CNC(=O)[C@@H]4C[C@@H](O)CN4C(=O)[C@@H](NC(=O)C4(F)CC4)C(C)(C)C)CC3)cc2OC)ncc1Cl [SD13]
- G2019S LRRK2 degraded (G2019S LRRK2; 33 nM/4 h): 60%
- G2019S LRRK2 degraded (G2019S LRRK2; 33 nM/24 h): 68%

Structure (SMILES): CNc1nc(Nc2ccc(C(=O)N3CCN(Cc4ccc(CSC(C)(C)C(NC(=O)C5(F)CC5)C(=O)N5CC(O)CC5C(=O)NCc5ccc(-c6scnc6C)cc5)cc4)CC3)cc2OC)ncc1Cl (stereo not drawn) [SD100]
- pRab10 dephosphorylated (Rab10-pThr73 [1]; 1 µM): 75–90%
- degradation of LRRK2 (LRRK2; 0.033 µM): < 40%
- degradation of LRRK2 (in words) (LRRK2; 33 nM/4 h, WT and G2019S LRRK2 MEFs): little to no degradation
